Results reported in publication PMC12728982, “Multichiral Half-Sandwich Ru(II) and Os(II) Anticancer Complexes Containing a Glutathione Synthesis Inhibitor” (Organometallics, 2025).

What was measured:
[1] = test system: IGROV-1 human ovarian cancer cells; experiment: Apoptosis assay, annexin V and PI, flow cytometry; type: cell-based; settings: IGROV-1, 50 or 100 μM, 24 h
Experimental: Apoptosis assays using annexin V and PI as markers were carried out to investigate possible modes of cell death. For the clinical drug cisplatin, apoptosis is the major mode of cell death. […] Other mechanisms of cell death such as ferroptosis could be investigated in future work. […]
was aspirated, cells washed in ice-cold PBS and then stained with 0.2 mg/mL RNase, 0.05 mg/mL propidium iodide (PI) in PBS for 25 min in the dark and on ice. Excess dye was removed, and cells were re-suspended in PBS. Samples were analysed by flow cytometry using the BD FACSMelody™ Cell Sorter (R653880001) and data analysis on FlowJo™ v10 Software (BD Life […]
IGROV-1 cells (1 x 106) were seeded in a 6-well plate and incubated for 24 h at 310 K. Stock solutions (200 µM) of the complexes were prepared by dissolving the compound in 5% (v/v) DMSO followed by dilution with DMEM and then diluted to desired concentrations. All complexes (50 µM and 100 µM) were added to the wells and incubated for 24 h. […] Samples were analysed by flow cytometry using the BD FACSMelody™ Cell Sorter (R653880001) and data analysis on FlowJo™ v10 Software (BD Life Sciences).9 […]
Percentage of IGROV -1 cancer cells in non -apoptotic, apoptotic (early and late) or necrotic phases determined by flow cytometry after 24 h treatment with Os/Ru L -BSO and glycine complexes. […] Standard deviations calculated for N=3. […]

IGROV-1 cells = experiment: Comet assay (DNA damage in single cells); type: cell-based, human; settings: IGROV-1, 24 h; 100 μM for Cisplatin and Os-Gly
Experimental: Comet assays were carried out to determine whether the complexes caused DNA damage in single cells. […] Cisplatin DNA-adducts have been shown previously to inhibit DNA migration through electrophoresis presenting as less tail movement. […] Excess dye was removed, and cells were re-suspended in PBS. Samples were analysed by flow cytometry using the BD FACSMelodyTM Cell Sorter (R653880001) and data analysis on FlowJoTM v10 Software (BD Life Sciences).9 2.11 Apoptosis IGROV-1 cells (1 x 106) were seeded in a 6-well plate and incubated for 24 h at 310 K. Stock solutions (200 μM) of the complexes were prepared by dissolving the compound in 5% (v/v) DMSO followed by dilution with DMEM and then diluted to desired concentrations. All complexes (50 μM and 100 μM) were added to the wells and incubated for 24 h. Cell pellets were collected using 0.25% trypsin and centrifuged (500 x g, 5 mins at 277 K). Cell pellets were washed with PBS and then stained with the commercial Apoptosis Detection Kit-FITC Annexin V and PI (BioLegend; San Diego, USA), as per manufacturer's instructions. Briefly, a staining solution of FITC Annexin V (1 unit/100 μL) diluted 1 in 100 and 1 μg/mL PI was added to the cells (30 min, room temperature). Excess dye was removed, and cells were re-suspended in PBS. Samples were analysed by flow cytometry using the BD FACSMelodyTM Cell Sorter (R653880001) and data analysis on FlowJoTM v10 Software (BD Life Sciences).9 2.12 Comet assay IGROV-1 cells (8×10^5 cells per well) were seeded into 6-well plates and incubated for 24 h. Test compounds (50 μM and 100 μM) were added to the wells and incubated at 3 10 K for 24 h. Cells were enzymatically detached using trypsin and cell concentration adjusted to 2×10^4 cells /mL in ice-cold PBS. 0.4 mL of cell suspension was added to 1.2 mL of 1% low melting point agarose in H 2O, then immediately added to microscope slides pre -coated in 1% agarose. […] Twenty comet images per sample were taken by confocal microscopy and analysed by OpenComet. […]

## [(p-cymene)Os(L-BSO)Cl] [Os-LBSO]
[1]
  Apoptosis / mode of cell death vs untreated cells: no significant differences
IGROV-1 cells
  Comet tails vs untreated cells: trend toward longer comet tails but this was not significant
